Earlier results in patent US20090092696A1, “Herbal combination omega oil aphrodisiac” (priority 2007, published 2009).

How the values were obtained:
corpus cavernosum = details: for erection when injected directly into the corpus cavernosum: hypodermic needle injection; for duration of erection after injection: appropriate dose, intracavernosal
impotentia erectionis = details: buccal administration of 100 I.U. three times a day for 14 days
impotent men = details: ingestion

SMILES | erection when injected directly into the corpus cavernosum (corpus cavernosum) | further results
CC(=O)Oc1cc(C(C)C)c(OCCN(C)C)cc1C [thymoxamine] | caused erection | 
CC[C@H](C)[C@@H]1NC(=O)[C@H](Cc2ccc(O)cc2)NC(=O)[C@@H](N)CSSC[C@@H](C(=O)N2CCC[C@H]2C(=O)N[C@@H](CC(C)C)C(=O)NCC(N)=O)NC(=O)[C@H](CC(N)=O)NC(=O)[C@H](CCC(N)=O)NC1=O [oxytocin] |  | improvement of impotentia erectionis (impotentia erectionis): 12 of the 16
CC(COc1ccccc1)N(CCCl)Cc1ccccc1 (stereo not drawn) [phenoxybenzamine] | caused erection | duration of erection after injection (corpus cavernosum): unrelenting erection lasting for hours
COc1ccc(CCN(C)CCCC(C#N)(c2ccc(OC)c(OC)c2)C(C)C)cc1OC (stereo not drawn) [verapamil] | caused erection | 
CCN(CC)CCOC(=O)C(Cc1cccc2ccccc12)CC1CCCO1 (mixture of isomers) [naftidrofuryl] | caused erection | 
Cc1ccc(N(CC2=NCCN2)c2cccc(O)c2)cc1 [phentolamine] | caused erection | 
CN(C)CCCN1c2ccccc2CCc2ccccc21 [imipramine] | caused erection | 
COc1ccc(Cc2nccc3cc(OC)c(OC)cc23)cc1OC [papaverine] | caused erection | duration of erection after injection (corpus cavernosum): unrelenting erection lasting for hours
COC(=O)[C@@H]1[C@H]2C[C@H]3c4[nH]c5ccccc5c4CCN3C[C@@H]2CC[C@@H]1O [Yohimbine] |  | subjective improvement in erectile ability (impotent men; impotent men treated): 38%; treated patients reporting complete satisfaction (impotent men): 5%
